Assays:
[1] = tested on: Hara (NRF2 pathway wild type cell line with low AKR1C3 expression); test: In vitro cell proliferation assay (CellTiter-Glo), Hara; format: cell-based; settings: 72 h; Hara cells, 3 days, CellTiter-Glo, top concentration 10 μM; read-out: HARA Qualified absolute AC50
Outline: (§1)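 Luminescent CellTiter-Glo readout after 3-day compound exposure at 37 °C; 8-point 1:5 series, top 10 μM final. Seeding: 800 cells/well for H460, 2000 cells/well for Hara, RPMI-1640 plus 10% FBS. AC50 and percentage activity derived after normalizing to DMSO (1%) and MG132 (30 μM) controls.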

[2] = tested on: H460 (NRF2 pathway mutant cell line with high AKR1C3 expression); test: In vitro cell proliferation assay (CellTiter-Glo), H460; format: cell-based; settings: Homo sapiens, NCI-H460, 72 h; H460 cells, 3 days, CellTiter-Glo, top concentration 10 μM; read-out: H460 Qualified absolute AC50
Outline: as §1

SMILES	AC50 [1] [µM]	AC50 [2] [µM]
NC(=O)c1c(F)ccc(CNC(=O)N2CCC3(CC2)CC(=O)c2cc(F)ccc2N3)c1F [Example 109, N-(3-carbamoyl-2,4-difluorobenzyl)-6′-fluoro-4′-oxo-3′,4′-dihydro-1′H-spiro[piperidine-4,2′-quinoline]-1-carboxamide]	> 10	0.69
O=C1CC2(CCN(C(=O)NCc3ccc(F)c(CO)c3)CC2)Nc2ccc(F)cc21 [Example 83, 6′-fluoro-N-(4-fluoro-3-(hydroxymethyl)benzyl)-4′-oxo-3′,4′-dihydro-1′H-spiro[piperidine-4,2′-quinoline]-1-carboxamide]	> 10	0.361
O=C1CC2(CCN(C(=O)NCc3ccc(F)c(-c4cnco4)c3)CC2)Nc2ccc(F)cc21 [Example 15, 6′-fluoro-N-(4-fluoro-3-(oxazol-5-yl)benzyl)-4′-oxo-3′,4′-dihydro-1′H-spiro[piperidine-4,2′-quinoline]-1-carboxamide]	9.44	0.029
Cc1ccc(CNC(=O)N2CCC3(CC2)CC(=O)c2cc(F)cc(F)c2N3)s1 [Example 123, 6′,8′-difluoro-N-((5-methylthiophen-2-yl)methyl)-4′-oxo-3′,4′-dihydro-1′H-spiro[piperidine-4,2′-quinoline]-1-carboxamide]	5.39	1.14
O=C1CC2(CCN(C(=O)NCc3ncccc3O)CC2)Nc2c(F)cc(F)cc21 [Example 63, 6′,8′-difluoro-N-((3-hydroxypyridin-2-yl)methyl)-4′-oxo-3′,4′-dihydro-1′H-spiro[piperidine-4,2′-quinoline]-1-carboxamide]	> 10	0.222
CN1c2ccc(F)cc2C(=O)CC12CCN(C(=O)NCc1ccc(F)c(C(N)=O)c1)CC2 [Example 41, N-(3-carbamoyl-4-fluorobenzyl)-6′-fluoro-1′-methyl-4′-oxo-3′,4′-dihydro-1′H-spiro[piperidine-4,2′-quinoline]-1-carboxamide]	> 10	0.093
CN1c2ccc(F)cc2C(=O)CC12CCN(C(=O)NCc1ccc(F)c(C(C)(C)O)c1)CC2 [Example 139, 6′-fluoro-N-(4-fluoro-3-(2-hydroxypropan-2-yl)benzyl)-1′-methyl-4′-oxo-3′,4′-dihydro-1′H-spiro[piperidine-4,2′-quinoline]-1-carboxamide]	8.83	2.3
O=C1CC2(CCN(C(=O)NCc3cccc(-n4cncn4)c3)CC2)Nc2c(F)cc(F)cc21 [Example 144, N-(3-(1H-1,2,4-triazol-1-yl)benzyl)-6′,8′-difluoro-4′-oxo-3′,4′-dihydro-1′H-spiro[piperidine-4,2′-quinoline]-1-carboxamide]	> 10	3.05
Nc1cc(CNC(=O)N2CCC3(CC2)CC(=O)c2cc(F)cc(F)c2N3)ccc1F [Example 73, N-(3-amino-4-fluorobenzyl)-6′,8′-difluoro-4′-oxo-3′,4′-dihydro-1′H-spiro[piperidine-4,2′-quinoline]-1-carboxamide]	3.48	0.295
COCCN1c2ccc(F)cc2C(=O)CC12CCN(C(=O)NCc1ccc(F)cc1)CC2 [Example 14, 6′-fluoro-N-(4-fluorobenzyl)-1′-(2-methoxyethyl)-4′-oxo-3′,4′-dihydro-1′H-spiro[piperidine-4,2′-quinoline]-1-carboxamide]	0.795	0.029
O=C1CC2(CCN(C(=O)NCc3ccc(F)cc3O)CC2)Nc2ccc(F)cc21 [Example 43, 6′-fluoro-N-(4-fluoro-2-hydroxybenzyl)-4′-oxo-3′,4′-dihydro-1′H-spiro[piperidine-4,2′-quinoline]-1-carboxamide]	> 10	0.099
C[C@H](O)CNC(=O)c1cc(CNC(=O)N2CCC3(CC2)CC(=O)c2cc(F)ccc2N3C)ccc1F [Example 117, (S)-6′-fluoro-N-(4-fluoro-3-((2-hydroxypropyl)carbamoyl)benzyl)-1′-methyl-4′-oxo-3′,4′-dihydro-1′H-spiro[piperidine-4,2′-quinoline]-1-carboxamide]	> 10	0.956
